Drawing on patent US7981893B2, “Heteroaryl compounds, compositions thereof, and methods of treatment therewith” (Signal Pharmaceuticals, LLC, priority 2006, dated 2011), this text covers IC50 and melting point for 14 compounds.

Data set [1] has as its target T1, PKCθ (Homo sapiens, UniProt Q04759).
T1 construct: purchased Invitrogen
Description: PKCθ IMAP Assay. The class given is biochemical. As to conditions: IMAP fluorescence polarization screening assay, 35 μM ATP. As for the experimental part: The following is an example of an assay that can be used to determine the PKCθ inhibitory activity of a test compound. Reagents are prepared as follows:
Assay Buffer: 50 mM HEPES (pH 7.6), 10 mM MgCl, 0.1 mM EDTA, 5 mM MBP, 0.01% Triton, 1 mM DTT, 0.05 mg/ml phosphatidyl serine, 0.05 mg/ml diacylglycerol.
The final concentration of PKCθ (Invitrogen) is 0.5 nM. The final concentration of substrate (FAM-AKRRRLSSLRA) (Molecular Devices) is 100 nM. The final concentration of ATP in the reaction is 35 μM. The final concentration of DMSO in the reaction is 2.5%.
Enzyme is kept in 5 μl aliquots and stored at −80° C. prior to use. Test compound is allowed to pre-incubate with enzyme for 45 minutes before the reactions is initiated.
The reaction mixture consists of: 5 μl of test compound in 10% DMSO, 5 μl of 400 nM substrate (FAM-AKRRRLSSLRA), 5 μl of […] PKCθ, and 5 μl of 140 μM ATP (ATP is added to the reaction mixture last to initiate the reaction) per well.
The reaction is allowed to proceed for 60 minutes and is terminated by adding 30 μl per well of 90% Progressive A buffer/10% Progressive B buffer and a 1:400 dilution of binding beeds (Molecular Devices).
The reaction is given a binding incubation time of at least 30 minutes prior to reading the fluorescence polarization signal on an Analyst reader (the following detector settings are used: fluorescein excitation-485 nm, fluorescein emission-530 nm, fluorescein dichroic-505 nm).
Background: Polarisation of emitted light reports the rotation of a fluorescent probe.

For data set [2], the target named is T2, mTOR (Homo sapiens, UniProt P42345).
T2 construct: Dilute TOR fraction 1:14 in “Simple TOR Buffer”
Put plainly: mTOR HTR-FRET Assay. As to conditions: HTR-FRET screening assay, GST-p70S6 kinase fragment substrate. The class given is biochemical. As for the experimental part:
The following is an example of an assay that can be used to determine the mTOR inhibitory activity of a test compound. Reagents are prepared as follows:
“Simple TOR buffer” (used to dilute high glycerol TOR fraction): 10 mM Tris pH 7.4, 100 mM NaCl, 0.1% Tween-20, 1 mM DTT (from 1M stock frozen at −20° C. just prior to use). For convenience a large quantity of “Simple TOR buffer” w/o DTT can be stored at 4° C. It can be brought to room temperature and DTT added just prior to dilution of TOR fraction.
5×KB/5×Mn/5×ATP solution (used to dilute substrate GST-p70S6kin 81 a.a. just prior to use) (40 ml screen quantity shown):
Enzyme solution: Dilute TOR fraction 1:14 in “Simple TOR Buffer”. For current lot that is 640 μg/ml TOR fraction diluted 14× to yield 45.7 μg/ml TOR in buffer (i.e. 7.85 ml TOR pooled fraction+102.1 ml Simple TOR buffer=110 ml 14× diluted TOR fraction). Each Enzyme Lot must be QC'd prior to assay.
Substrate solution: This may be prepared just prior to assay if preferred. Dilute 5.3 mg/ml GST-p70S6kinase fragment stock to 3.5 μg/ml (97 nM) working stock in 5×KB/5×Mn/5×ATP solution (i.e. 26.41 μL (5.3 mg/ml) GST-p70S6+40 ml 5×KB/5×Mn/5×ATP=40 ml 3.5 μg/ml (97 nM)).
Assay Buffer (for dilution of Antibodies used in Antibody Detection Reagent):
Antibody Detection Reagent (this reagent should be made just prior to addition to Assay Plates):
Using PlateTrak program (Screen) or Matrix Pipettor (SAR), 19.5 μL of diluted TOR fraction is added to assay plate in all test, reference or positive control wells. 19.5 μL of “Simple TOR buffer” is added to all negative control wells. If treating multiple plates with the same compounds, can increase volume of enzyme to multiples of 19.5 μL in a tall 384 well polypropylene plate.
Using EP3, 0.5 μl of test, reference or control DMSO is added to each well with mixing. Plates are incubated for 30 minutes at room temperature.
Using PlateTrak program (Screen) or Matrix Pipettor (SAR) 5 μL of 5×KB/5×Mn/5×ATP/5× substrate solution is added to each well of the assay plate to start the reaction. The solutions are mixed well and incubated for 2 hours at room temperature.
Using PlateTrak program (Screen) or Matrix Pipettor (SAR) 5 μL of 60 mM EDTA is added to stop the reaction. The solutions are mixed well and allowed to sit for 15-20 minutes before the next step.
Using PlateTrak program (Screen) or Matrix Pipettor (SAR) 10 μl of Antibody Detection Reagent is added. The solutions are mixes well and incubated for 5 hours to O/N to allow antibodies to form complexes with phosphorylated substrate.
Plates are read on AnalystHT using protocol Multi-Method protocol.

T1 sequence (Q04759 whole entry): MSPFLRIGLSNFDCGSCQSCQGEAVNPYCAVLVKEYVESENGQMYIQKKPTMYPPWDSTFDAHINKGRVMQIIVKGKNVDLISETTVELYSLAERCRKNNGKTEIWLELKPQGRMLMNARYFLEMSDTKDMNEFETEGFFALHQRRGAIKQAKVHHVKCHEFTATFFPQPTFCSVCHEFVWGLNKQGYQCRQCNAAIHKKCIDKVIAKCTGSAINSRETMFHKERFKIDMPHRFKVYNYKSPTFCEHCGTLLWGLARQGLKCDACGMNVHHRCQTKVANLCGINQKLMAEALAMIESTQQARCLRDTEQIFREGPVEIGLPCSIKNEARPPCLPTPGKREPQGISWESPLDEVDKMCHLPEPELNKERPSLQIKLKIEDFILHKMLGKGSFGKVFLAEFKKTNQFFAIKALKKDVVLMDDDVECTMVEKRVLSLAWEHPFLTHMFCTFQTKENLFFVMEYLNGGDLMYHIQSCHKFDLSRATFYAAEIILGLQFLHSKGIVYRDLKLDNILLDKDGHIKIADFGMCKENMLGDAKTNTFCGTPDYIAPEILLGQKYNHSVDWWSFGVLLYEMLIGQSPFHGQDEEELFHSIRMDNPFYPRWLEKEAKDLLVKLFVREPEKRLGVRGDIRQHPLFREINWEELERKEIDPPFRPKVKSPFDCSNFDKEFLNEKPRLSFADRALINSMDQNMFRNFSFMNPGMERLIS

As usually defined, the IC50 is the concentration that inhibits the measured activity by half. A low value points to inhibition by little substance. Consider `COc1cc(-c2cnc3[nH]c(=O)n(CC4CCOCC4)c3n2)cc(OC)c1OC` [Compound 2, 1-((tetrahydro-2H-pyran-4-yl)methyl)-6-(3,4,5-trimethoxyphenyl)-1H-imidazo[4,5-b]pyrazin-2(3H)-one], for which the IC50 is more than 30 µM in data set [1] and 0.1 to 5 µM in data set [2].

Turning to `COc1cccc(Cn2c(=O)[nH]c3ncc(-c4ccc(S(C)(=O)=O)cc4)nc32)c1` [Compound 4, 1-(3-methoxybenzyl)-6-(4-(methylsulfonyl)phenyl)-1H-imidazo[4,5-b]pyrazin-2(3H)-one], the IC50 in data set [1] was more than 30 µM; in data set [2], 0.1 to 5 µM. Take `C[C@@H](c1ccccc1)n1c(=O)[nH]c2ncc(-c3cccc4ncccc34)nc21` [Compound 5, (S)-1-(1-phenylethyl)-6-(quinolin-5-yl)-1H-imidazo[4,5-b]pyrazin-2(3H)-one]: the IC50 in data set [1] was more than 30 µM; in data set [2], 5.1 to 10 µM. Turning to `O=c1[nH]c2ncc(-c3ccc(O)cc3)nc2n1CC1CCOCC1` [Compound 6, 6-(4-hydroxyphenyl)-1-((tetrahydro-2H-pyran-4-yl)methyl)-1H-imidazo[4,5-b]pyrazin-2(3H)-one], in data set [2], the IC50 lay within 0.1 to 5 µM. `CC(c1ccccc1)n1c(=O)[nH]c2ncc(-c3ccc(NS(C)(=O)=O)cc3)nc21` (stereo not shown) [Compound 78, N-(4-(2-oxo-3-(1-phenylethyl)-2,3-dihydro-1H-imidazo[4,5-b]pyrazin-5-yl)phenyl)methanesulfonamide] gave an IC50 in data set [1] of more than 30 µM. As to `CC(c1ccccc1)n1c(=O)[nH]c2ncc(-c3cccc(N)c3)nc21` (stereo not shown) [Compound 80, 6-(3-aminophenyl)-1-(1-phenylethyl)-1H-imidazo[4,5-b]pyrazin-2(3H)-one], in data set [2], the 50% inhibitory concentration (IC50) was in the range of 5.1 to 10 µM. The compound `CC(c1ccccc1)n1c(=O)[nH]c2ncc(-c3cccc(N(C)C)c3)nc21` (stereo not shown) [Compound 81, 6-(3-(dimethylamino)phenyl)-1-(1-phenylethyl)-1H-imidazo[4,5-b]pyrazin-2(3H)-one] yielded a concentration for half-maximal inhibition (IC50) in data set [2] of more than 30 µM. In data set [1], `CC(c1ccccc1)n1c(=O)[nH]c2ncc(-c3ccc(C(F)(F)F)cc3)nc21` (stereo not shown) [Compound 83, 1-(1-phenylethyl)-6-(4-(trifluoromethyl)phenyl)-1H-imidazo[4,5-b]pyrazin-2(3H)-one] showed an IC50 of more than 30 µM.

Compound `CC(c1ccccc1)n1c(=O)oc2ncc(-c3cccc4ncccc34)nc21` (stereo not shown) [Compound 86, 3-(1-phenylethyl)-5-(quinolin-5-yl)oxazolo[5,4-b]pyrazin-2(3H)-one] returned an IC50 in data set [2] of more than 30 µM. In general, melting point refers to the temperature, or range, at which the solid turns liquid. For `O=c1[nH]c2ncc(-c3ccc(O)cc3)nc2n1CC1CCCC1` [Compound 87, 1-(cyclopentylmethyl)-6-(4-hydroxyphenyl)-1H-imidazo[4,5-b]pyrazin-2(3H)-one], the melting point was in the range of 296 to 297 °C. In data set [2], this compound displayed an IC50 of 0.1 to 5 µM.

In turn, `CC(C)n1c(=O)[nH]c2ncc(-c3ccc(O)cc3)nc21` [Compound 88, 6-(4-hydroxyphenyl)-1-isopropyl-1H-imidazo[4,5-b]pyrazin-2(3H)-one] had a melting point of 323 to 324 °C. This compound registered a concentration for half-maximal inhibition (IC50) in data set [2] of 0.1 to 5 µM. In turn, `CC(C)Cn1c(=O)[nH]c2ncc(-c3ccc(O)cc3)nc21` [Compound 89, 6-(4-hydroxyphenyl)-1-isobutyl-1H-imidazo[4,5-b]pyrazin-2(3H)-one] returned a melting point of 290 to 291 °C. The same compound showed a 50% inhibitory concentration (IC50) in data set [2] of 0.1 to 5 µM. In turn, `O=c1[nH]c2ncc(-c3ccc(O)cc3)nc2n1CC1CCCOC1` (stereo not shown) [Compound 90, 6-(4-hydroxyphenyl)-1-((tetrahydro-2H-pyran-3-yl)methyl)-1H-imidazo[4,5-b]pyrazin-2(3H)-one] had a melting point of 271 to 272 °C. Also, the IC50 in data set [2] was 0.1 to 5 µM. With `O=c1[nH]c2ncc(-c3ccc(O)cc3)nc2n1CC1CCCCC1` [Compound 91, 1-(cyclohexylmethyl)-6-(4-hydroxyphenyl)-1H-imidazo[4,5-b]pyrazin-2(3H)-one], the melting point is 302 to 303 °C. The half-inhibitory concentration (IC50) in data set [2] lay in the range of 0.1 to 5 µM.
